According to PubChem BioAssay AID328 (DTP/NCI, 2004):
Where “and” joins values, the source holds several entries; their conditions need not be identical. Equal values may be shown once. Inconclusive results and toxic doses are left out.

Tested on: BDF1 mice, P388 leukemia ip, median survival T/C
Assay: NCI In Vivo Anticancer Drug Screen. Data for tumor model P388 Leukemia (intraperitoneal) in B6D2F1 (BDF1) mice
Conditions: endpoint: median survival time, higher = longer survival
Procedure, shortened: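 Mice carrying the transplantable tumour receive compound or vehicle. Survival is followed in each arm, and the treated measure is divided by the vehicle measure.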

[1] = dose: 50.0 mg/kg/injection, schedule: Q01DX009 (ip), vehicle: water
[2] = dose: 100.0 mg/kg/injection, schedule: Q01DX009 (ip), vehicle: water
[3] = dose: 100.0 mg/kg/injection, schedule: Q04DX002 (ip), vehicle: saline with Tween-80
[4] = dose: 200.0 mg/kg/injection, schedule: Q04DX002 (ip), vehicle: saline with Tween-80
[5] = dose: 50.0 mg/kg/injection, schedule: Q04DX003 (ip), vehicle: saline with Tween-80
[6] = dose: 100.0 mg/kg/injection, schedule: Q04DX003 (ip), vehicle: saline with Tween-80
[7] = dose: 200.0 mg/kg/injection, schedule: Q04DX003 (ip), vehicle: saline with Tween-80
[8] = dose: 400.0 mg/kg/injection, schedule: Q04DX003 (ip), vehicle: saline with Tween-80
[9] = dose: 400.0 mg/kg/injection, schedule: Q01DX009 (ip), vehicle: saline
[10] = dose: 25.0 mg/kg/injection, schedule: Q01DX009 (ip), vehicle: saline with Tween-80
[11] = dose: 50.0 mg/kg/injection, schedule: Q01DX009 (ip), vehicle: saline with Tween-80
[12] = dose: 100.0 mg/kg/injection, schedule: Q01DX009 (ip), vehicle: saline with Tween-80
[13] = dose: 100.0 mg/kg/injection, schedule: Q01DX009 (ip), vehicle: Klucel (hydroxypropylcellulose) (HPC)
[14] = dose: 200.0 mg/kg/injection, schedule: Q01DX009 (ip), vehicle: Klucel (hydroxypropylcellulose) (HPC)
[15] = dose: 400.0 mg/kg/injection, schedule: Q01DX009 (ip), vehicle: Klucel (hydroxypropylcellulose) (HPC)
[16] = dose: 100.0 mg/kg/injection, schedule: Q04DX003 (ip), vehicle: saline
[17] = dose: 200.0 mg/kg/injection, schedule: Q04DX003 (ip), vehicle: saline
[18] = dose: 200.0 mg/kg/injection, schedule: Q01DX009 (ip), vehicle: saline with Tween-80

With Clc1ccc(C[P+](c2ccccc2)(c2ccccc2)c2ccccc2)cc1Cl the T/C (dose: 0.45 mg/kg/injection, schedule: Q01DX009 (ip), vehicle: saline) was 104 % of control, the T/C (dose: 0.9 mg/kg/injection, schedule: Q01DX009 (ip), vehicle: saline) was 100 % of control and the T/C (dose: 1.35 mg/kg/injection, schedule: Q01DX001 (ip), vehicle: saline) was 100 % of control. The T/C (dose: 1.8 mg/kg/injection, schedule: Q01DX009 (ip), vehicle: saline) was 91 % of control, the T/C (dose: 2.7 mg/kg/injection, schedule: Q01DX001 (ip), vehicle: saline) was 95 % of control and the T/C (dose: 3.6 mg/kg/injection, schedule: Q01DX009 (ip), vehicle: saline) was 108 % of control.
For O=C(NP(=O)(N1CC1)N1CC1)OCc1ccccc1, the T/C (dose: 100.0 mg/kg/injection, schedule: Q01DX009 (ip), vehicle: alcohol) was 100 % of control, the T/C (dose: 100.0 mg/kg/injection, schedule: Q04DX003 (ip), vehicle: alcohol) was 95 % of control and the T/C (dose: 200.0 mg/kg/injection, schedule: Q01DX009 (ip), vehicle: alcohol) was 100 % of control. The T/C (dose: 200.0 mg/kg/injection, schedule: Q04DX003 (ip), vehicle: alcohol) was 110 % of control, the T/C (dose: 400.0 mg/kg/injection, schedule: Q01DX009 (ip), vehicle: alcohol) was 86 % of control and the T/C (dose: 400.0 mg/kg/injection, schedule: Q04DX003 (ip), vehicle: alcohol) was 100 % of control.
In the case of COc1ccc(C(C)=O)cc1OCc1ccccc1, the T/C [1] is reported as 114 % of control, the T/C [2] is reported as 109 % of control and the T/C (dose: 100.0 mg/kg/injection, schedule: Q04DX003 (ip), vehicle: water) is reported as 102 % of control. The T/C (dose: 200.0 mg/kg/injection, schedule: Q01DX009 (ip), vehicle: water) was 119 % of control, the T/C (dose: 200.0 mg/kg/injection, schedule: Q04DX003 (ip), vehicle: water) was 102 % of control and the T/C (dose: 400.0 mg/kg/injection, schedule: Q01DX009 (ip), vehicle: water) was 111 % of control. The T/C (dose: 400.0 mg/kg/injection, schedule: Q04DX003 (ip), vehicle: water) was 111 % of control.
Cc1c2oc3c(C)ccc(C(=O)NCCc4ccccn4)c3nc-2c(C(=O)NCCc2ccccn2)c(N)c1=O was tested, and the T/C [3] was 101 % of control, the T/C [4] was 92 % of control and the T/C (dose: 400.0 mg/kg/injection, schedule: Q04DX002 (ip), vehicle: saline with Tween-80) was 97 % of control.
O=C1c2ccccc2C(=O)c2c(NCCSCCO)ccc(NCCSCCO)c21 was tested, and the T/C (dose: 25.0 mg/kg/injection, schedule: Q01DX009 (ip), vehicle: other) was 95 % of control, the T/C (dose: 50.0 mg/kg/injection, schedule: Q01DX009 (ip), vehicle: other) was 86 % of control and the T/C (dose: 100.0 mg/kg/injection, schedule: Q01DX009 (ip), vehicle: other) was 94 % of control.
COc1ccc(OC)c(/C=C/c2ccc3ccccc3n2)c1 was tested, and the T/C [5] was 105 % of control, the T/C [6] was 100 % of control and 105 % of control and the T/C [7] was 110 % of control. The T/C [8] was 100 % of control.
CS(C)=O was tested, and the T/C (dose: 200.0 mg/kg/injection, schedule: Q01DX009 (ip), vehicle: saline) was 100 % of control, the T/C [9] was 100 % of control and the T/C (dose: 600.0 mg/kg/injection, schedule: Q01DX009 (ip), vehicle: saline) was 100 % of control. The T/C (dose: 800.0 mg/kg/injection, schedule: Q01DX009 (ip), vehicle: saline) was 95 % of control.
O=C(NC(=O)c1c(F)cccc1F)Nc1ccc([N+](=O)[O-])cn1 was tested, and the T/C [10] was 96 % of control, the T/C [11] was 90 % of control and the T/C [12] was 90 % of control.
CC(=O)Nc1ccc(OC(C)=O)cc1C=O was tested, and the T/C (dose: 50.0 mg/kg/injection, schedule: Q04DX002 (ip), vehicle: saline with Tween-80) was 111 % of control, the T/C [3] was 98 % of control and the T/C [4] was 89 % of control.
NS(=O)(=O)c1ccc(NC(=O)c2ccccc2C(=O)O)cc1 was tested, and the T/C [13] was 95 % of control, the T/C [14] was 100 % of control and the T/C [15] was 105 % of control.
With COc1cc(N/C(N)=N\C(N)=NC(C)C)cc(OC)c1OC the T/C (dose: 100.0 mg/kg/injection, schedule: Q04DX003 (ip), vehicle: saline sonified) was 95 % of control.
In the case of CC1C(N2CCOCC2)CS1(=O)=O (centres undefined), the T/C [13] is reported as 100 % of control, the T/C [14] is reported as 115 % of control and the T/C [15] is reported as 105 % of control.
CC(=O)/C=N/Nc1ccccc1 was tested, and the T/C (dose: 50.0 mg/kg/injection, schedule: Q04DX003 (ip), vehicle: Klucel (hydroxypropylcellulose) (HPC)) was 109 % of control, the T/C (dose: 66.0 mg/kg/injection, schedule: Q04DX003 (ip), vehicle: Klucel (hydroxypropylcellulose) (HPC)) was 110 % of control and the T/C (dose: 100.0 mg/kg/injection, schedule: Q04DX003 (ip), vehicle: Klucel (hydroxypropylcellulose) (HPC)) was 120 % of control. For the same compound, the T/C (dose: 150.0 mg/kg/injection, schedule: Q04DX003 (ip), vehicle: Klucel (hydroxypropylcellulose) (HPC)) was 120 % of control and the T/C (dose: 200.0 mg/kg/injection, schedule: Q04DX003 (ip), vehicle: Klucel (hydroxypropylcellulose) (HPC)) was 95 % of control.
With Clc1ncnc2c1ncn2C1CCCO1 (centres undefined) the T/C [16] was 104 % of control and the T/C [17] was 104 % of control.
O=c1[nH]c2cc(Cl)c(Cl)cc2o1 was tested, and the T/C (dose: 50.0 mg/kg/injection, schedule: Q01DX009 (ip), vehicle: Klucel (hydroxypropylcellulose) (HPC)) was 115 % of control, the T/C [11] was 104 % of control and the T/C [13] was 115 % of control. For the same compound, the T/C [12] was 100 % of control, the T/C [6] was 100 % of control and the T/C [14] was 110 % of control. The T/C [18] was 104 % of control and the T/C [7] was 95 % of control.
COC(=O)/C(C#N)=C/c1c[nH]c2ccccc12 was tested, and the T/C [6] was 100 % of control, the T/C [7] was 109 % of control and the T/C [8] was 100 % of control.
CC(CC(C)(C)C)C(=O)CCC(C)(C)C (centres undefined) was tested, and the T/C (dose: 100.0 mg/kg/injection, schedule: Q01DX001 (ip), vehicle: saline with Tween-80) was 104 % of control, the T/C (dose: 200.0 mg/kg/injection, schedule: Q01DX001 (ip), vehicle: saline with Tween-80) was 100 % of control and the T/C (dose: 400.0 mg/kg/injection, schedule: Q01DX001 (ip), vehicle: saline with Tween-80) was 109 % of control.
For CSc1nc(N)nc2nc[nH]c12, the T/C [11] was 109 % of control and the T/C [12] was 104 % of control.
For CCOC(=O)c1ccc2c3c([nH]c2c1C)-c1ccccc1CC3, the T/C [11] was 120 % of control, the T/C [12] was 111 % of control and the T/C [18] was 118 % of control.
For C1CNC2NCCNC2N1 (centres undefined), the T/C (dose: 66.0 mg/kg/injection, schedule: Q04DX003 (ip), vehicle: saline) was 104 % of control, the T/C [16] was 100 % of control and the T/C (dose: 117.0 mg/kg/injection, schedule: Q04DX003 (ip), vehicle: saline) was 109 % of control. For the same compound, the T/C (dose: 132.0 mg/kg/injection, schedule: Q01DX009 (ip), vehicle: saline) was 156 % of control, the T/C (dose: 150.0 mg/kg/injection, schedule: Q04DX003 (ip), vehicle: saline) was 100 % of control and the T/C (dose: 178.0 mg/kg/injection, schedule: Q04DX003 (ip), vehicle: saline) was 154 % of control. For the same compound, the T/C [17] was 120 % of control, the T/C (dose: 266.0 mg/kg/injection, schedule: Q04DX003 (ip), vehicle: saline) was 122 % of control and the T/C (dose: 300.0 mg/kg/injection, schedule: Q01DX009 (ip), vehicle: saline) was 150 % of control. The T/C [9] was 150 % of control and the T/C (dose: 400.0 mg/kg/injection, schedule: Q04DX003 (ip), vehicle: saline) was 172 % of control.
For O=N[O-].O=N[O-].[Co].[NH-]CC[N-]CCO.[NH-]CC[N-]CCO, the T/C (dose: 12.5 mg/kg/injection, schedule: Q01DX009 (ip), vehicle: water) was 102 % of control and 115 % of control, the T/C (dose: 40.0 mg/kg/injection, schedule: Q01DX009 (ip), vehicle: water) was 118 % of control and the T/C [1] was 100 % of control and 111 % of control. The T/C [2] was 101 % of control.
With CCSC1(SCC)C(=O)OC2=C(CCCC2)C1N1CCOCC1 (centres undefined) the T/C [11] was 99 % of control, the T/C [12] was 99 % of control and the T/C [18] was 94 % of control.
COC(=O)N1C=Cc2ccccc2C1C#N (centres undefined) was tested, and the T/C (dose: 25.0 mg/kg/injection, schedule: Q01DX001 (ip), vehicle: other) was 104 % of control, the T/C [10] was 105 % of control and the T/C (dose: 25.0 mg/kg/injection, schedule: Q04DX003 (ip), vehicle: saline with Tween-80) was 100 % of control. The T/C (dose: 50.0 mg/kg/injection, schedule: Q01DX001 (ip), vehicle: other) was 90 % of control, the T/C [11] was 110 % of control and the T/C [5] was 104 % of control. The T/C (dose: 100.0 mg/kg/injection, schedule: Q01DX001 (ip), vehicle: other) was 86 % of control, the T/C [12] was 110 % of control and the T/C [6] was 100 % of control.
